Legend:
[1] = tested on: patients with end stage renal disease (ESRD) on hemodialysis; assay: Randomized, double-blind, placebo-controlled, dose-ranging study of ferric citrate on serum phosphate, Ca and Ca×PO4; format: in vivo, human; conditions: for Serum [Ca] (mg/dL) at Day 0 / Serum [PO4] (mg/dL) at Day 0 / [Ca] * [PO4] (mg/dL)^2 at Day 0: Day 0 baseline; for Serum Ca (mg/dL): Linear Regression: N.S.: Not Significant
From the text: (§1) Objectives: (1) To determine the effect of ferric citrate at doses of 2, 4 and 6 g daily, administered TID (three times a day), for 28 days on serum phosphate (PO4) levels in patients with end stage renal disease (ESRD). (2) To evaluate the safety of ferric citrate at doses of 2, 4, 6 g daily, administered TID, for 28 days in patients with ESRD.
(§2) Study Design: Randomized, double-blind, placebo-controlled, dose-ranging study to assess the effect of ferric citrate on serum phosphate concentrations in patients with ESRD on hemodialysis. Patients are assessed at Study Days 14 and 28 for effectiveness as measured by serum phosphate concentrations. Patients who received one or more doses of study medication are also assessed for safety.
Study Duration: 8 weeks (including the screening period, 2 weeks washout, 4 weeks treatment)
Ferric citrate is administered orally, and is given equally three times a day.

[2] = tested on: patients with end stage renal disease (ESRD); assay: Treatment-emergent adverse events in the dose-ranging study; format: in vivo, human
From the text: as §1, §2

[3] = 0, 2, 4 and 6 gm/day, TID immediately after meals
[4] = 6 g/day (N = 32), Day 28, *P < 0.05 baseline change vs placebo
[5] = Day 14, 2, 4, 6 g/day TID vs placebo
[6] = Day 28, 2, 4, 6 g/day TID vs placebo

## O=C([O-])CC(O)(CC(=O)[O-])C(=O)[O-].[Fe+3] [ferric citrate]
[1]; [3]
  Ca*PO4: decrease
  serum PO4: decrease
[1]; 2 g/day (N = 31)
  Serum [Ca] (mg/dL) at Day 0: 8.78 mg/dL
  Serum [PO4] (mg/dL) at Day 0: 7.2 mg/dL
  [Ca] * [PO4] (mg/dL)^2 at Day 0: 62.9 (mg/dL)^2
[1]; 2 g/day (N = 31), Day 14
  Serum [Ca] (mg/dL) at Day 14: 9.01 mg/dL
  Serum [PO4] (mg/dL) at Day 14: 6.7 mg/dL
  [Ca] * [PO4] (mg/dL)^2 at Day 14: 60.3 (mg/dL)^2
[1]; 2 g/day (N = 31), Day 28
  Serum [Ca] (mg/dL) at Day 28: 9.00 mg/dL
  Serum [PO4] (mg/dL) at Day 28: 6.9 mg/dL
  [Ca] * [PO4] (mg/dL)^2 at Day 28: 61.7 (mg/dL)^2
[1]; 4 g/day (N = 32)
  Serum [Ca] (mg/dL) at Day 0: 9.02 mg/dL
  Serum [PO4] (mg/dL) at Day 0: 7.1 mg/dL
  [Ca] * [PO4] (mg/dL)^2 at Day 0: 63.5 (mg/dL)^2
[1]; 4 g/day (N = 32), Day 14
  Serum [Ca] (mg/dL) at Day 14: 9.47 mg/dL
  Serum [PO4] (mg/dL) at Day 14: 6.4 mg/dL
  [Ca] * [PO4] (mg/dL)^2 at Day 14: 59.9 (mg/dL)^2
[1]; 4 g/day (N = 32), Day 28
  Serum [Ca] (mg/dL) at Day 28: 9.29 mg/dL
  Serum [PO4] (mg/dL) at Day 28: 6.0 mg/dL
  [Ca] * [PO4] (mg/dL)^2 at Day 28: 55.4 (mg/dL)^2
[1]; 6 g/day (N = 32)
  Serum [Ca] (mg/dL) at Day 0: 8.99 mg/dL
  Serum [PO4] (mg/dL) at Day 0: 7.3 mg/dL
  [Ca] * [PO4] (mg/dL)^2 at Day 0: 65.8 (mg/dL)^2
[1]; 6 g/day (N = 32), Day 14
  Serum [Ca] (mg/dL) at Day 14: 9.13 mg/dL
  Serum [PO4] (mg/dL) at Day 14: 6.3 mg/dL
  [Ca] * [PO4] (mg/dL)^2 at Day 14: 57.5 (mg/dL)^2
[1]; 6 g/day (N = 32), Day 28
  Serum [Ca] (mg/dL) at Day 28: 9.26 mg/dL
[1]; [4]
  Serum [PO4] (mg/dL) at Day 28: 5.8 mg/dL
  [Ca] * [PO4] (mg/dL)^2 at Day 28: 54.1 (mg/dL)^2
[1]; 6 gm/day dose at both 14 and 28 days
  Ca*P04 levels: have decreased and were statistically significant
[1]; Day 0
  Serum Ca (mg/dL): Dose Response: No
[1]; [5]
  Ca × PO4 (mg/dL)^2: Dose Response: Yes
  Ca × PO4 (mg/dL)^2: Linear Regression P: P = 0.0401
  Ca × PO4 (mg/dL)^2: Statistical Significant: No
  Serum Ca (mg/dL): Dose Response: No
  Serum Ca (mg/dL): Statistical Significant: No
  Serum PO4 (mg/dL): Dose Response: No
  Serum PO4 (mg/dL): Statistical Significant: No
[1]; Day 14
  Serum Ca (mg/dL): Linear Regression: N.S.
[1]; [6]
  Ca × PO4 (mg/dL)^2: Dose Response: Yes
  Serum Ca (mg/dL): Dose Response: No
  Serum Ca (mg/dL): Statistical Significant: No
  Serum PO4 (mg/dL): Dose Response: Yes
  Serum PO4 (mg/dL): Linear Regression P: P = 0.0073
  Serum PO4 (mg/dL): Statistical Significant: Yes (6 g/day)
[1]; Day 28, 2, 4, 6 g/day vs placebo
  [Ca] * [PO4] (mg/dL)^2: Dose Response: Yes
[1]; Day 28
  Serum Ca (mg/dL): Linear Regression: N.S.
[1]; Day 78, 2, 4, 6 g/day TID vs placebo
  Ca × PO4 (mg/dL)^2: Statistical Significant: Yes (6 g/day)
[1]; Phase II study
  serum Ca×P: decrease serum Ca×P in a dose-dependent manner
[1]; during the 28 days, 2, 4, and 6 gm/day
  change in serum calcium level: No significant change
[1]; patients with ESRD
  ability to lower serum phosphate levels: demonstrated
[2]; 2 g/day (N = 33)
  Abdominal Pain (Preferred Term): # Event: 0
  Abdominal Pain (Preferred Term): (%): (0.0) %
  Diarrhea (Preferred Term): # Event: 3
  Diarrhea (Preferred Term): (%): (9.1) %
  GI Disorder, Definitely (relationship): # Event: 0
  GI Disorder, Definitely (relationship): (%): (0.0) %
  GI Disorder, Possibly (relationship): # Event: 3
  GI Disorder, Possibly (relationship): (%): (9.1) %
  GI Disorder, Probably (relationship): # Event: 2
  GI Disorder, Probably (relationship): (%): (6.1) %
  GI Disorders (System Organ Class): # Event: 8
  GI Disorders (System Organ Class): (%): (24.2) %
  GI Disorders, Mild (severity): # Event: 6
  GI Disorders, Mild (severity): (%): (18.2) %
  General Disorders (System Organ Class): # Event: 4
  General Disorders (System Organ Class): (%): (12.1) %
  Infections and Infestations (System Organ Class): # Event: 0
  Infections and Infestations (System Organ Class): (%): (0.0) %
  Skin and SC Tissue Disorders (System Organ Class): # Event: 3
  Skin and SC Tissue Disorders (System Organ Class): (%): (9.1) %
  T#at1AE, Definitely (relationship): # Event: 0
  T#at1AE, Definitely (relationship): (%): (0.0) %
  T#at1AE, Mild (severity): # Event: 13
  T#at1AE, Mild (severity): (%): (39.4) %
  T#at1AE, Moderate (severity): # Event: 6
  T#at1AE, Moderate (severity): (%): (18.2) %
  T#at1AE, Possibly (relationship): # Event: 5
  T#at1AE, Possibly (relationship): (%): (15.2) %
  T#at1AE, Probably (relationship): # Event: 2
  T#at1AE, Probably (relationship): (%): (6.1) %
  T#at1AE, Severe (severity): # Event: 0
  T#at1AE, Severe (severity): (%): (0.0) %
  Total number of subjects with at least one adverse event (T#at1AE): # Event: 16
  Total number of subjects with at least one adverse event (T#at1AE): (%): (48.5) %
[2]; 4 g/day (N = 34)
  Abdominal Pain (Preferred Term): # Event: 4
  Abdominal Pain (Preferred Term): (%): (11.8) %
  Diarrhea (Preferred Term): # Event: 1
  Diarrhea (Preferred Term): (%): (2.9) %
  GI Disorder, Definitely (relationship): # Event: 0
  GI Disorder, Definitely (relationship): (%): (0.0) %
  GI Disorder, Possibly (relationship): # Event: 6
  GI Disorder, Possibly (relationship): (%): (17.6) %
  GI Disorder, Probably (relationship): # Event: 2
  GI Disorder, Probably (relationship): (%): (5.9) %
  GI Disorders (System Organ Class): # Event: 10
  GI Disorders (System Organ Class): (%): (29.4) %
  GI Disorders, Mild (severity): # Event: 8
  GI Disorders, Mild (severity): (%): (23.5) %
  General Disorders (System Organ Class): # Event: 2
  General Disorders (System Organ Class): (%): (5.9) %
  Infections and Infestations (System Organ Class): # Event: 3
  Infections and Infestations (System Organ Class): (%): (8.8) %
  Skin and SC Tissue Disorders (System Organ Class): # Event: 0
  Skin and SC Tissue Disorders (System Organ Class): (%): (0.0) %
  T#at1AE, Definitely (relationship): # Event: 0
  T#at1AE, Definitely (relationship): (%): (0.0) %
  T#at1AE, Mild (severity): # Event: 9
  T#at1AE, Mild (severity): (%): (26.5) %
  T#at1AE, Moderate (severity): # Event: 3
  T#at1AE, Moderate (severity): (%): (8.8) %
  T#at1AE, Possibly (relationship): # Event: 6
  T#at1AE, Possibly (relationship): (%): (17.6) %
  T#at1AE, Probably (relationship): # Event: 2
  T#at1AE, Probably (relationship): (%): (5.9) %
  T#at1AE, Severe (severity): # Event: 2
  T#at1AE, Severe (severity): (%): (5.9) %
  Total number of subjects with at least one adverse event (T#at1AE): # Event: 12
  Total number of subjects with at least one adverse event (T#at1AE): (%): (35.3) %
[2]; 6 g/day (N = 33)
  Abdominal Pain (Preferred Term): # Event: 2
  Abdominal Pain (Preferred Term): (%): (6.1) %
  Diarrhea (Preferred Term): # Event: 1
  Diarrhea (Preferred Term): (%): (3.0) %
  GI Disorder, Definitely (relationship): # Event: 0
  GI Disorder, Definitely (relationship): (%): (0.0) %
  GI Disorder, Possibly (relationship): # Event: 1
  GI Disorder, Possibly (relationship): (%): (3.0) %
  GI Disorder, Probably (relationship): # Event: 5
  GI Disorder, Probably (relationship): (%): (15.2) %
  GI Disorders (System Organ Class): # Event: 10
  GI Disorders (System Organ Class): (%): (30.3) %
  GI Disorders, Mild (severity): # Event: 9
  GI Disorders, Mild (severity): (%): (27.3) %
  General Disorders (System Organ Class): # Event: 4
  General Disorders (System Organ Class): (%): (12.1) %
  Infections and Infestations (System Organ Class): # Event: 1
  Infections and Infestations (System Organ Class): (%): (3.0) %
  Skin and SC Tissue Disorders (System Organ Class): # Event: 4
  Skin and SC Tissue Disorders (System Organ Class): (%): (12.1) %
  T#at1AE, Definitely (relationship): # Event: 0
  T#at1AE, Definitely (relationship): (%): (0.0) %
  T#at1AE, Mild (severity): # Event: 14
  T#at1AE, Mild (severity): (%): (42.4) %
  T#at1AE, Moderate (severity): # Event: 2
  T#at1AE, Moderate (severity): (%): (6.1) %
  T#at1AE, Possibly (relationship): # Event: 2
  T#at1AE, Possibly (relationship): (%): (6.1) %
  T#at1AE, Probably (relationship): # Event: 5
  T#at1AE, Probably (relationship): (%): (15.2) %
  T#at1AE, Severe (severity): # Event: 1
  T#at1AE, Severe (severity): (%): (3.0) %
  Total number of subjects with at least one adverse event (T#at1AE): # Event: 17
  Total number of subjects with at least one adverse event (T#at1AE): (%): (51.5) %
[2]; Phase II study
  side effect: minimum side effect
